Measurements: US11046714B2, “2,2-difluorodioxolo A2A receptor antagonists” (Merck Sharp & Dohme Corp., priority 2013, dated 2021)

Biological target: human A2A receptor (Homo sapiens (Human), UniProt P29274)
Experiment: competition binding assay using Scintillation Proximity technology
Details: membranes from CHO-K1 cells expressing the human A2a receptor; 2.0 nM tritiated compound; Cheng-Prusoff
Outline: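 Membranes (1.0 μg) from CHO-K1 cells expressing human A2A were treated with adenosine deaminase, then incubated 1 h at room temperature with compound (3000–0.15 nM) and 2.0 nM tritiated SCH-type ligand on WGA SPA beads in PBS plus 10 mM MgCl2. Nonspecific binding was defined with 1 μM CGS 15943. Ki was derived from EC50 via Cheng-Prusoff.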

Chain of human A2A receptor (P29274 whole entry): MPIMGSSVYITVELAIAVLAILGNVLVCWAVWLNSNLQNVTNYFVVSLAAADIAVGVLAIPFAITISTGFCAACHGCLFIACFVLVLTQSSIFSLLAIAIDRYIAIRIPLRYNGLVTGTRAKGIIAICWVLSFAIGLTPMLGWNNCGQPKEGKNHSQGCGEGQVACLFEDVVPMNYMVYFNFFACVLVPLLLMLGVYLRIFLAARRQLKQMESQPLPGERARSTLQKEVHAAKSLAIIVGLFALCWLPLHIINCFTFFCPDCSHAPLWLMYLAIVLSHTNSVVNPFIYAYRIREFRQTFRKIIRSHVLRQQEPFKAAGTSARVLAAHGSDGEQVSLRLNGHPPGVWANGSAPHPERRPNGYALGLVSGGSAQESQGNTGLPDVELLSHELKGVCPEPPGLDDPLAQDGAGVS

Compound	Ki [nM]
CO[C@@H]1CCCN(CCc2nc3c4ccc5c(c4nc(N)n3n2)OC(F)(F)O5)C1 [Example 40, 2,2-difluoro-8-{2-[(3R)-3-methoxypiperidin-1-yl]ethyl}[1,3]dioxolo[4,5-h][1,2,4]triazolo[1,5-c]quinazolin-5-amine]	13
CC1=CCN(CCc2nc3c4ccc5c(c4nc(N)n3n2)OC(F)(F)O5)CC1 [Example 41, 2,2-difluoro-8-[2-(4-methyl-3,6-dihydropyridin-1(2H)-yl)ethyl][1,3]dioxolo[4,5-h][1,2,4]triazolo[1,5-c]quinazolin-5-amine]	3.8
C[C@@H]1CN(CCc2nc3c4ccc5c(c4nc(N)n3n2)OC(F)(F)O5)CCO1 [Example 42, 2,2-difluoro-8-{2-[(2R)-2-methylmorpholin-4-yl]ethyl}[1,3]dioxolo[4,5-h][1,2,4]triazolo[1,5-c]quinazolin-5-amine]	11
C[C@H]1COCCN1CCc1nc2c3ccc4c(c3nc(N)n2n1)OC(F)(F)O4 [Example 43, 2,2-difluoro-8-{2-[(3S)-3-methylmorpholin-4-yl]ethyl}[1,3]dioxolo[4,5-h][1,2,4]triazolo[1,5-c]quinazolin-5-amine]	7.8
C[C@@H]1CN(CCc2nc3c4ccc5c(c4nc(N)n3n2)OC(F)(F)O5)C[C@H](C)O1 [Example 44, 8-{2-[(2R,6S)-2,6-dimethylmorpholin-4-yl]ethyl}-2,2-difluoro[1,3]dioxolo[4,5-h][1,2,4]triazolo[1,5-c]quinazolin-5-amine]	45
Cc1ncc(N2CCN(CCc3nc4c5ccc6c(c5nc(N)n4n3)OC(F)(F)O6)[C@H](C)C2)s1 [Example 45, 2,2-difluoro-8-{2-[(2R)-2-methyl-4-(2-methyl-1,3-thiazol-5-yl)piperazin-1-yl]ethyl} [1,3]dioxolo[4,5-h][1,2,4] triazolo[1,5-c]quinazolin-5-amine]	1.5
C[C@@H]1CN(c2nsnc2Cl)CCN1CCc1nc2c3ccc4c(c3nc(N)n2n1)OC(F)(F)O4 [Example 46, 8-{2-[(2R)-4-(4-chloro-1,2,5-thiadiazol-3-yl)-2-methylpiperazin-1-yl]ethyl}-2,2-difluoro[1,3]dioxolo[4,5-h][1,2,4]triazolo[1,5-c]quinazolin-5-amine]	1.8
CN1CCN(CCc2nc3c4ccc5c(c4nc(N)n3n2)OC(F)(F)O5)CC1=O [Example 47, 4-[2-(5-amino-2,2-difluoro[1,3]dioxolo[4,5-h][1,2,4]triazolo [1,5-c]quinazolin-8-yl)ethyl]-1-methylpiperazin-2-one]	1.7
Nc1nc2c3c(ccc2c2nc(CCN4CCN(CC5CC5)C(=O)C4)nn12)OC(F)(F)O3 [Example 48, 4-[2-(5-amino-2,2-difluoro[1,3]dioxolo[4,5-h][1,2,4]triazolo [1,5-c]quinazolin-8-yl)ethyl]-1-(cyclopropylmethyl)piperazin-2-one]	0.8
Nc1nc2c3c(ccc2c2nc(CCN4CCN(C5CCCC5)C(=O)C4)nn12)OC(F)(F)O3 [Example 49, 4-[2-(5-amino-2,2-difluoro[1,3]dioxolo[4,5-h][1,2,4]triazolo [1,5-c]quinazolin-8-yl)ethyl]-1-cyclopentylpiperazin-2-one]	1.6
Nc1nc2c3c(ccc2c2nc(CCN4CCN(c5cccc(F)c5)C(=O)C4)nn12)OC(F)(F)O3 [Example 50, 4-[2-(5-amino-2,2-difluoro[1,3]dioxolo[4,5-h][1,2,4]triazolo [1,5-c]quinazolin-8-yl)ethyl]-1-(3-fluorophenyl)piperazin-2-one]	1.1
Nc1nc2c3c(ccc2c2nc(CCN4C[C@H]5CCCN[C@H]5C4)nn12)OC(F)(F)O3 [Example 51, 2,2-difluoro-8-{2-[(4aR,7aR)-octahydro-6H-pyrrolo[3,4-b]pyridin-6-yl]ethyl}[1,3]dioxolo [4,5-h][1,2,4]triazolo[1,5-c]quinazolin-5-amine]	55
Nc1nc2c3c(ccc2c2nc(CCN4CC5CNC[C@H]5C4)nn12)OC(F)(F)O3 (stereo partly drawn) [Example 52, 2,2-difluoro-8-{2-[(3aS)-hexahydropyrrolo[3,4-c]pyrrol-2(1H)-yl]ethyl}[1,3]dioxolo [4,5-h][1,2,4]triazolo[1,5-c]quinazolin-5-amine]	40
Nc1nc2c3c(ccc2c2nc(CCN4CCC5(CCNCC5)C4)nn12)OC(F)(F)O3 [Example 53, 8-[2-(2,8-diazaspiro[4.5]dec-2-yl)ethyl]-2,2-difluoro[1,3] dioxolo[4,5-h][1,2,4]triazolo [1,5-c]quinazolin-5-amine]	39
Nc1nc2c3c(ccc2c2nc(CCN4CCC5(CCNCC5)CC4)nn12)OC(F)(F)O3 [Example 54, 8-[2-(3,9-diazaspiro[5.5]undec-3-yl)ethyl]-2,2-difluoro[1,3] dioxolo[4,5-h][1,2,4]triazolo [1,5-c]quinazolin-5-amine]	320
Nc1nc2c3c(ccc2c2nc(CCN4CCCC45CCNCC5)nn12)OC(F)(F)O3 [Example 55, 8-[2-(1,8-diazaspiro[4.5]dec-1-yl)ethyl]-2,2-difluoro[1,3] dioxolo[4,5-h][1,2,4]triazolo [1,5-c]quinazolin-5-amine]	22

Compound	Ki [nM]
Nc1nc2c3c(ccc2c2nc(CCN4CCCC5(CCNCC5)C4)nn12)OC(F)(F)O3 [Example 56, 8-[2-(2,9-diazaspiro[5.5]undec-2-yl)ethyl]-2,2-difluoro[1,3] dioxolo[4,5-h][1,2,4]triazolo [1,5-c]quinazolin-5-amine]	27
Nc1nc2c3c(ccc2c2nc(CCNC4CC5(CNC5)C4)nn12)OC(F)(F)O3 [Example 57, 8-[2-(2-azaspiro[3.3]hept-6-ylamino)ethyl]-2,2-difluoro [1,3]dioxolo[4,5-h][1,2,4] triazolo[1,5-c]quinazolin-5-amine]	90
Nc1nc2c3c(ccc2c2nc(CCNC4(C(F)(F)F)CCC4)nn12)OC(F)(F)O3 [Example 58, 2,2-difluoro-8-(2-{[1-(trifluoromethyl)cyclobutyl]-amino}ethyl)[1,3]dioxolo[4,5-h][1,2,4]triazolo[1,5-c]quinazolin-5-amine]	1
Nc1nc2c3c(ccc2c2nc(CCNCc4ccc(C(F)(F)F)cc4)nn12)OC(F)(F)O3 [Example 59, 2,2-difluoro-8-(2-{[4-(trifluoromethyl)benzyl]amino}ethyl)[1,3]dioxolo[4,5-h][1,2,4]triazolo[1,5-c]quinazolin-5-amine]	6.2
Cc1csc(CN(CCc2nc3c4ccc5c(c4nc(N)n3n2)OC(F)(F)O5)CC2CC2)n1 [Example 60, 8-(2-{(cyclopropylmethyl)[(4-methyl-1,3-thiazol-2-yl)methyl]amino}ethyl)-2,2-difluoro[1,3]dioxolo[4,5-h][1,2,4]triazolo[1,5-c]quinazolin-5-amine]	0.7
Cc1ncc(CN(CCc2nc3c4ccc5c(c4nc(N)n3n2)OC(F)(F)O5)CC2CC2)s1 [Example 61, 8-(2-{(cyclopropylmethyl)[(2-methyl-1,3-thiazol-5-yl)methyl]amino}ethyl)-2,2-difluoro[1,3]dioxolo[4,5-h][1,2,4]triazolo[1,5-c]quinazolin-5-amine]	1.5
Nc1nc2c3c(ccc2c2nc(CCN4CCCC(C(F)(F)F)C4)nn12)OC(F)(F)O3 (stereo not shown) [Example 62, 2,2-difluoro-8-{2-[3-(trifluoromethyl)piperidin-1-yl]ethyl}[1,3]dioxolo[4,5-h][1,2,4]triazolo[1,5-c]quinazolin-5-amine]	3.6
C[C@@H]1CN(CCc2nc3c4ccc5c(c4nc(N)n3n2)OC(F)(F)O5)C[C@@H](C)O1 [Example 63, 8-{2-[(2R,6R)-2,6-dimethylmorpholin-4-yl]ethyl}-2,2-difluoro[1,3]dioxolo[4,5-h][1,2,4] triazolo[1,5-c]quinazolin-5-amine]	36
C[C@H](Cc1nc2c3ccc4c(c3nc(N)n2n1)OC(F)(F)O4)N1Cc2ccncc2C1 [Example 74, (R)-8-(2-(1H-pyrrolo[3,4-c]pyridin-2(3H)-yl)propyl)-2,2-difluoro-[1,3]dioxolo[4,5-h][1,2,4]triazolo[1,5-c]quinazolin-5-amine]	7.1
C[C@H](Cc1nc2c3ccc4c(c3nc(N)n2n1)OC(F)(F)O4)N1CCc2cccnc21 [Example 75, 8-[(2R)-2-(2,3-dihydro-1H-pyrrolo [2,3-b]pyridin-1-yl)propyl]-2,2-difluoro[1,3]dioxolo[4,5-h][1,2,4] triazolo[1,5-c]quinazolin-5-amine]	4.2
C[C@H](Cc1nc2c3ccc4c(c3nc(N)n2n1)OC(F)(F)O4)N1CCc2ccncc21 [Example 76, 8-[(2R)-2-(2,3-dihydro-1H-pyrrolo [2,3-c]pyridin-1-yl)propyl]-2,2-difluoro[1,3]dioxolo[4,5-h][1,2,4] triazolo[1,5-c]quinazolin-5-amine]	1.8
C[C@H](Cc1nc2c3ccc4c(c3nc(N)n2n1)OC(F)(F)O4)N1CCc2ccncc2C1 [Example 77, 8-[(2R)-2-(3,4-dihydro-2,7-naphthyridin-2(1H)-yl)propyl]-2,2-difluoro[1,3]dioxolo[4,5-h] [1,2,4]triazolo[1,5-c]quinazolin-5-amine]	3.9
C[C@H](Cc1nc2c3ccc4c(c3nc(N)n2n1)OC(F)(F)O4)N1CCc2cccnc2C1 [Example 78, 8-[(2R)-2-(5,8-dihydro-1,7-naphthyridin-7(6H)-yl)propyl]-2,2-difluoro[1,3]dioxolo[4,5-h] [1,2,4]triazolo[1,5-c]quinazolin-5-amine]	1.4
Cc1nc2c(o1)CN([C@H](C)Cc1nc3c4ccc5c(c4nc(N)n3n1)OC(F)(F)O5)CC2 [Example 79, 2,2-difluoro-8-[(2R)-2-(2-methyl-6,7-dihydro[1,3]oxazolo[5,4-c]pyridine-5(4H)-yl)propyl][1,3] dioxolo[4,5-h][1,2,4]triazolo[1,5-c] quinazolin-5-amine]	1.3
Cc1nc2c(s1)CN([C@H](C)Cc1nc3c4ccc5c(c4nc(N)n3n1)OC(F)(F)O5)CC2 [Example 80, 2,2-difluoro-8-[(2R)-2-(2-methyl-6,7-dihydro[1,3]thiazolo[5,4-c]pyridin-5(4H)-yl)propyl][1,3] dioxolo[4,5-h][1,2,4]triazolo [1,5-c]quinazolin-5-amine]	2.6
